# Measured values published in patent US20230085307A1, “PYRIDAZINONE COMPOUND AND HERBICIDE” (NISSAN CHEMICAL CORPORATION, priority 2019, published 2023).
# Experiments:
# wild oat [1] = assay: Test Example 4: herbicidal effect by soil treatment (Table 19, symbol I); format: in vivo, wild oat (Avena fatua); conditions: amount of applied herbicide 320 g/ha
# Procedure, shortened: (§1)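 Pre-emergence style soil spray: seeds under ~1.5 cm sterilized diluvial soil received a uniform coat of emulsion diluted to the predetermined herbicide amount. Greenhouse 25–30° C; readout at week three on previously defined criteria.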
# velvetleaf [2] = assay: Test Example 5: herbicidal effect by foliage application, plastic box (Table 20, symbol M); format: in vivo, velvetleaf (Abutilon theophrasti); conditions: foliage application, 320 g/ha, three weeks after application
# Procedure, shortened: (§2)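 Plants were sown into sterilized diluvial soil under about 1.5 cm cover and kept in a greenhouse at 25° C. to 30° C. Fourteen days on, foliage received an even spray of the diluted emulsion. Herbicidal or crop effect was judged three weeks afterwards.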
# Italian ryegrass [3] = assay: Test Example 5: herbicidal effect by foliage application, plastic box (Table 20, symbol K); format: in vivo, Italian ryegrass (Lolium multiflorum); conditions: foliage application, 320 g/ha, three weeks after application
# Procedure, shortened: as §2
# barnyard grass [4] = assay: Test Example 5: herbicidal effect by foliage application, plastic box (Table 20, symbol H); format: in vivo, barnyard grass (Echinochloa crus-galli); conditions: foliage application, 320 g/ha, three weeks after application
# Procedure, shortened: as §2
# rice flat sedge = assay: Test Example 3: herbicidal effect by foliage application, Wagner pot (Table 18, symbol E); format: in vivo, rice flat sedge (Cyperus iria); conditions: 320 g/ha
# Procedure, shortened: (§3)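 Plants were sown in alluvial soil held under 0.1–0.5 cm standing water and grown 14 days in a greenhouse at 25–30 °C. An emulsifiable formulation, water-diluted to the set dose, was then sprayed onto the foliage, and effects were scored three weeks later using previously defined criteria.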
# windgrass [5] = assay: Test Example 4: herbicidal effect by soil treatment (Table 19, symbol L); format: in vivo, windgrass (Apera spica-venti); conditions: amount of applied herbicide 320 g/ha
# Procedure, shortened: as §1
# Italian ryegrass [6] = assay: Test Example 4: herbicidal effect by soil treatment (Table 19, symbol K); format: in vivo, Italian ryegrass (Lolium multiflorum); conditions: amount of applied herbicide 320 g/ha
# Procedure, shortened: as §1
# lambsquarters [7] = assay: Test Example 4: herbicidal effect by soil treatment (Table 19, symbol O); format: in vivo, lambsquarters (Chenopodium album); conditions: amount of applied herbicide 320 g/ha
# Procedure, shortened: as §1
# wild oat [8] = assay: Test Example 5: herbicidal effect by foliage application, plastic box (Table 20, symbol I); format: in vivo, wild oat (Avena fatua); conditions: foliage application, 320 g/ha, three weeks after application
# Procedure, shortened: as §2
# southern crabgrass [9] = assay: Test Example 5: herbicidal effect by foliage application, plastic box (Table 20, symbol F); format: in vivo, southern crabgrass (Digitaria ciliaris); conditions: foliage application, 320 g/ha, three weeks after application
# Procedure, shortened: as §2
# green foxtail [10] = assay: Test Example 5: herbicidal effect by foliage application, plastic box (Table 20, symbol G); format: in vivo, green foxtail (Setaria viridis); conditions: foliage application, 320 g/ha, three weeks after application
# Procedure, shortened: as §2
# false cleavers [11] = assay: Test Example 4: herbicidal effect by soil treatment (Table 19, symbol Q); format: in vivo, false cleavers (Galium spurium); conditions: amount of applied herbicide 320 g/ha
# Procedure, shortened: as §1
# windgrass [12] = assay: Test Example 5: herbicidal effect by foliage application, plastic box (Table 20, symbol L); format: in vivo, windgrass (Apera spica-venti); conditions: foliage application, 320 g/ha, three weeks after application
# Procedure, shortened: as §2
# chickweed [13] = assay: Test Example 4: herbicidal effect by soil treatment (Table 19, symbol P); format: in vivo, common chickweed (Stellaria media); conditions: amount of applied herbicide 320 g/ha
# Procedure, shortened: as §1
# persian speedwell [14] = assay: Test Example 4: herbicidal effect by soil treatment (Table 19, symbol R); format: in vivo, Persian speedwell (Veronica persica); conditions: amount of applied herbicide 320 g/ha
# Procedure, shortened: as §1
# lambsquarters [15] = assay: Test Example 5: herbicidal effect by foliage application, plastic box (Table 20, symbol O); format: in vivo, lambsquarters (Chenopodium album); conditions: foliage application, 320 g/ha, three weeks after application
# Procedure, shortened: as §2
# blackgrass [16] = assay: Test Example 4: herbicidal effect by soil treatment (Table 19, symbol J); format: in vivo, blackgrass (Alopecurus myosuroides); conditions: amount of applied herbicide 320 g/ha
# Procedure, shortened: as §1
# barnyard grass [17] = assay: Test Example 4: herbicidal effect by soil treatment (Table 19, symbol H); format: in vivo, barnyard grass (Echinochloa crus-galli); conditions: amount of applied herbicide 320 g/ha
# Procedure, shortened: as §1
# chickweed [18] = assay: Test Example 5: herbicidal effect by foliage application, plastic box (Table 20, symbol P); format: in vivo, common chickweed (Stellaria media); conditions: foliage application, 320 g/ha, three weeks after application
# Procedure, shortened: as §2
# persian speedwell [19] = assay: Test Example 5: herbicidal effect by foliage application, plastic box (Table 20, symbol R); format: in vivo, Persian speedwell (Veronica persica); conditions: foliage application, 320 g/ha, three weeks after application
# Procedure, shortened: as §2
# southern crabgrass [20] = assay: Test Example 4: herbicidal effect by soil treatment (Table 19, symbol F); format: in vivo, southern crabgrass (Digitaria ciliaris); conditions: amount of applied herbicide 320 g/ha
# Procedure, shortened: as §1
# Chinese sprangletop = assay: Test Example 3: herbicidal effect by foliage application, Wagner pot (Table 18, symbol D); format: in vivo, chinese sprangletop (Leptochloa chinensis); conditions: 320 g/ha
# Procedure, shortened: as §3
# barnyard grass [21] = assay: Test Example 3: herbicidal effect by foliage application, Wagner pot (Table 18, symbol H); format: in vivo, barnyard grass (Echinochloa crus-galli); conditions: 320 g/ha
# Procedure, shortened: as §3
# redroot pigweed [22] = assay: Test Example 5: herbicidal effect by foliage application, plastic box (Table 20, symbol N); format: in vivo, redroot pigweed (Amaranthus retroflexus); conditions: foliage application, 320 g/ha, three weeks after application
# Procedure, shortened: as §2
# blackgrass [23] = assay: Test Example 5: herbicidal effect by foliage application, plastic box (Table 20, symbol J); format: in vivo, blackgrass (Alopecurus myosuroides); conditions: foliage application, 320 g/ha, three weeks after application
# Procedure, shortened: as §2
# redroot pigweed [24] = assay: Test Example 4: herbicidal effect by soil treatment (Table 19, symbol N); format: in vivo, redroot pigweed (Amaranthus retroflexus); conditions: amount of applied herbicide 320 g/ha
# Procedure, shortened: as §1
# velvetleaf [25] = assay: Test Example 4: herbicidal effect by soil treatment (Table 19, symbol M); format: in vivo, velvetleaf (Abutilon theophrasti); conditions: amount of applied herbicide 320 g/ha
# Procedure, shortened: as §1
# green foxtail [26] = assay: Test Example 4: herbicidal effect by soil treatment (Table 19, symbol G); format: in vivo, green foxtail (Setaria viridis); conditions: amount of applied herbicide 320 g/ha
# Procedure, shortened: as §1
# false cleavers [27] = assay: Test Example 5: herbicidal effect by foliage application, plastic box (Table 20, symbol Q); format: in vivo, false cleavers (Galium spurium); conditions: foliage application, 320 g/ha, three weeks after application
# Procedure, shortened: as §2
smiles,measurement,setting,value
COc1ccc(-c2sc3cc(OC)ccc3c2-c2c(O)c(C)nn(C)c2=O)cc1 [3-068],"I: wild oat, herbicidal effect grade",wild oat [1],0 (Herbicidal rate of 5% or less (almost no effect))
same,"M: velvetleaf, herbicidal effect grade",velvetleaf [2],4 (Herbicidal rate of 70% or more and less than 90%)
same,"K: Italian ryegrass, herbicidal effect grade",Italian ryegrass [3],3 (Herbicidal rate of 40% or more and less than 70%)
same,"H: barnyard grass, herbicidal effect grade",barnyard grass [4],0 (Herbicidal rate of 5% or less (almost no effect))
same,herbicidal effect on rice flat sedge (E),rice flat sedge,3 (Herbicidal rate of 40% or more and less than 70%)
same,"L: windgrass, herbicidal effect grade",windgrass [5],0 (Herbicidal rate of 5% or less (almost no effect))
same,"K: Italian ryegrass, herbicidal effect grade",Italian ryegrass [6],2 (Herbicidal rate of 20% or more and less than 40%)
same,"O: lambsquarters, herbicidal effect grade",lambsquarters [7],4 (Herbicidal rate of 70% or more and less than 90%)
same,"I: wild oat, herbicidal effect grade",wild oat [8],0 (Herbicidal rate of 5% or less (almost no effect))
same,"F: southern crabgrass, herbicidal effect grade",southern crabgrass [9],0 (Herbicidal rate of 5% or less (almost no effect))
same,"G: green foxtail, herbicidal effect grade",green foxtail [10],0 (Herbicidal rate of 5% or less (almost no effect))
same,"Q: false cleavers, herbicidal effect grade",false cleavers [11],4 (Herbicidal rate of 70% or more and less than 90%)
same,"L: windgrass, herbicidal effect grade",windgrass [12],0 (Herbicidal rate of 5% or less (almost no effect))
same,"P: chickweed, herbicidal effect grade",chickweed [13],2 (Herbicidal rate of 20% or more and less than 40%)
same,"R: persian speedwell, herbicidal effect grade",persian speedwell [14],5 (Herbicidal rate of 90% or more (almost completely withered))
same,"O: lambsquarters, herbicidal effect grade",lambsquarters [15],5 (Herbicidal rate of 90% or more (almost completely withered))
same,"J: blackgrass, herbicidal effect grade",blackgrass [16],0 (Herbicidal rate of 5% or less (almost no effect))
same,"H: barnyard grass, herbicidal effect grade",barnyard grass [17],0 (Herbicidal rate of 5% or less (almost no effect))
same,"P: chickweed, herbicidal effect grade",chickweed [18],5 (Herbicidal rate of 90% or more (almost completely withered))
same,"R: persian speedwell, herbicidal effect grade",persian speedwell [19],5 (Herbicidal rate of 90% or more (almost completely withered))
same,"F: southern crabgrass, herbicidal effect grade",southern crabgrass [20],0 (Herbicidal rate of 5% or less (almost no effect))
same,herbicidal effect on Chinese sprangletop (D),Chinese sprangletop,2 (Herbicidal rate of 20% or more and less than 40%)
same,herbicidal effect on barnyard grass (H),barnyard grass [21],3 (Herbicidal rate of 40% or more and less than 70%)
same,"N: redroot pigweed, herbicidal effect grade",redroot pigweed [22],3 (Herbicidal rate of 40% or more and less than 70%)
same,"J: blackgrass, herbicidal effect grade",blackgrass [23],1 (Herbicidal rate of 5% or more and less than 20%)
same,"N: redroot pigweed, herbicidal effect grade",redroot pigweed [24],4 (Herbicidal rate of 70% or more and less than 90%)
same,"M: velvetleaf, herbicidal effect grade",velvetleaf [25],0 (Herbicidal rate of 5% or less (almost no effect))
same,"G: green foxtail, herbicidal effect grade",green foxtail [26],0 (Herbicidal rate of 5% or less (almost no effect))
same,"Q: false cleavers, herbicidal effect grade",false cleavers [27],5 (Herbicidal rate of 90% or more (almost completely withered))
CCc1ccccc1-c1sc2ccccc2c1-c1c(O)c(C)nn(C)c1=O [1-003],"herbicidal effect rating, I: wild oat",wild oat [1],0 (Herbicidal rate of 5% or less (almost no effect))
same,"herbicidal effect grade, M: velvetleaf",velvetleaf [2],4 (Herbicidal rate of 70% or more and less than 90%)
same,"herbicidal effect grade, K: Italian ryegrass",Italian ryegrass [3],3 (Herbicidal rate of 40% or more and less than 70%)
same,"herbicidal effect grade, H: barnyard grass",barnyard grass [4],3 (Herbicidal rate of 40% or more and less than 70%)
same,"herbicidal effect on E (rice flat sedge), rating 0-5",rice flat sedge,3 (Herbicidal rate of 40% or more and less than 70%)
same,"herbicidal effect rating, L: windgrass",windgrass [5],0 (Herbicidal rate of 5% or less (almost no effect))
same,"herbicidal effect rating, K: Italian ryegrass",Italian ryegrass [6],0 (Herbicidal rate of 5% or less (almost no effect))
same,"herbicidal effect rating, O: lambsquarters",lambsquarters [7],3 (Herbicidal rate of 40% or more and less than 70%)
same,"herbicidal effect grade, I: wild oat",wild oat [8],3 (Herbicidal rate of 40% or more and less than 70%)
same,"herbicidal effect grade, F: southern crabgrass",southern crabgrass [9],4 (Herbicidal rate of 70% or more and less than 90%)
same,"herbicidal effect grade, G: green foxtail",green foxtail [10],5 (Herbicidal rate of 90% or more (almost completely withered))
same,"herbicidal effect rating, Q: false cleavers",false cleavers [11],3 (Herbicidal rate of 40% or more and less than 70%)
same,"herbicidal effect grade, L: windgrass",windgrass [12],5 (Herbicidal rate of 90% or more (almost completely withered))
same,"herbicidal effect rating, P: chickweed",chickweed [13],4 (Herbicidal rate of 70% or more and less than 90%)
same,"herbicidal effect rating, R: persian speedwell",persian speedwell [14],2 (Herbicidal rate of 20% or more and less than 40%)
same,"herbicidal effect grade, O: lambsquarters",lambsquarters [15],0 (Herbicidal rate of 5% or less (almost no effect))
same,"herbicidal effect rating, J: blackgrass",blackgrass [16],0 (Herbicidal rate of 5% or less (almost no effect))
same,"herbicidal effect rating, H: barnyard grass",barnyard grass [17],0 (Herbicidal rate of 5% or less (almost no effect))
same,"herbicidal effect grade, P: chickweed",chickweed [18],5 (Herbicidal rate of 90% or more (almost completely withered))
same,"herbicidal effect grade, R: persian speedwell",persian speedwell [19],5 (Herbicidal rate of 90% or more (almost completely withered))
same,"herbicidal effect rating, F: southern crabgrass",southern crabgrass [20],3 (Herbicidal rate of 40% or more and less than 70%)
same,"herbicidal effect on D (Chinese sprangletop), rating 0-5",Chinese sprangletop,3 (Herbicidal rate of 40% or more and less than 70%)
same,"herbicidal effect on H (barnyard grass), rating 0-5",barnyard grass [21],1 (Herbicidal rate of 5% or more and less than 20%)
same,"herbicidal effect grade, N: redroot pigweed",redroot pigweed [22],3 (Herbicidal rate of 40% or more and less than 70%)
same,"herbicidal effect grade, J: blackgrass",blackgrass [23],3 (Herbicidal rate of 40% or more and less than 70%)
same,"herbicidal effect rating, N: redroot pigweed",redroot pigweed [24],2 (Herbicidal rate of 20% or more and less than 40%)
same,"herbicidal effect rating, M: velvetleaf",velvetleaf [25],0 (Herbicidal rate of 5% or less (almost no effect))
same,"herbicidal effect rating, G: green foxtail",green foxtail [26],4 (Herbicidal rate of 70% or more and less than 90%)
same,"herbicidal effect grade, Q: false cleavers",false cleavers [27],5 (Herbicidal rate of 90% or more (almost completely withered))
